The values that follow are results of earlier work, collected in patent US20030215406A1, “Cosmetic or dermatological preparations containing aminogaunidine, derivatives thereof or structural analogs thereof” (Beiersdorf AG, priority 2000, published 2003).

`N=C(N)NN` [Aminoguanidine]: the solubility in alcohol entry (solvent: alcohol) is “soluble”. In addition, under “solvent: ether”, the solubility in ether result is reported as “insoluble”. Further, the solubility in water result (solvent: water) is “soluble”.
